Assay results as given in ChEMBL document CHEMBL4411312, “Design, Synthesis, and Biological Evaluation of New 1-(Aryl-1 H-pyrrolyl)(phenyl)methyl-1 H-imidazole Derivatives as Antiprotozoal Agents” (J Med Chem, 2019).
Calls of active or inactive are those of the source. The calls are words filed in the database; no cut-off is given here.

Key:
[1] = test system: Trypanosoma brucei rhodesiense; experiment: Antiprotozoal activity against Trypanosoma brucei rhodesiense STIB900 trypomastigotes after 72 hrs by Alamar Blue dye-based fluorometric analysis; format: functional, organism-based; conditions: STIB900, 72 h
[2] = test system: Trypanosoma cruzi; experiment: Antiprotozoal activity against Trypanosoma cruzi Tulahuen C2C4 amastigotes infected in rat L6 cells after 96 hrs by inverted microscopic analysis; format: functional, organism-based; conditions: Tulahuen C2C4, L6, 96 h
[3] = test system: Leishmania donovani; experiment: Antiprotozoal activity against Leishmania donovani MHOM/ET/67/L82 axenic amastigote after 72 hrs by inverted microscopic analysis; format: functional, organism-based; conditions: MHOM/ET/67/L82, 72 h
[4] = test system: Plasmodium falciparum; experiment: Antiprotozoal activity against erythrocytic stage of Plasmodium falciparum K1 after 48 hrs by [3H]- hypoxanthine incorporation assay; format: functional, organism-based
[5] = Cytotoxicity against rat L6 cels assessed as reduction in cell viability after 72 hrs by Alamar Blue dye-based fluorometric analysis; conditions: L6 cells
[6] = Selectivity index, ratio of CC50 for rat L6 cels to IC50 for Trypanosoma brucei rhodesiense STIB900 trypomastigotes; format: toxicity; conditions: L6 cells, read-out: Ratio IC50
[7] = Selectivity index, ratio of CC50 for rat L6 cels to IC50 for Leishmania donovani MHOM/ET/67/L82 axenic amastigote; format: toxicity; conditions: L6 cells, read-out: Ratio IC50
[8] = Selectivity index, ratio of CC50 for rat L6 cels to IC50 for erythrocytic stage of Plasmodium falciparum K1; format: toxicity; conditions: L6 cells, read-out: Ratio IC50
[9] = test system: Trypanosoma cruzi; experiment: Potency index, ratio of benznidazole IC50 to compound IC50 for Trypanosoma cruzi Tulahuen C2C4 amastigotes infected in rat L6 cells after 96 hrs by inverted microscopic analysis; format: functional
[10] = target: Sterol 14-alpha demethylase (Trypanosoma cruzi (strain CL Brener)) (UniProt Q7Z1V1); experiment: Binding affinity to Trypanosoma cruzi CYP51 at 5 to 10 uM by UV-vis spectrophotometry
Sequence of Sterol 14-alpha demethylase (Trypanosoma cruzi (strain CL Brener)) (Q7Z1V1 whole entry, looked up): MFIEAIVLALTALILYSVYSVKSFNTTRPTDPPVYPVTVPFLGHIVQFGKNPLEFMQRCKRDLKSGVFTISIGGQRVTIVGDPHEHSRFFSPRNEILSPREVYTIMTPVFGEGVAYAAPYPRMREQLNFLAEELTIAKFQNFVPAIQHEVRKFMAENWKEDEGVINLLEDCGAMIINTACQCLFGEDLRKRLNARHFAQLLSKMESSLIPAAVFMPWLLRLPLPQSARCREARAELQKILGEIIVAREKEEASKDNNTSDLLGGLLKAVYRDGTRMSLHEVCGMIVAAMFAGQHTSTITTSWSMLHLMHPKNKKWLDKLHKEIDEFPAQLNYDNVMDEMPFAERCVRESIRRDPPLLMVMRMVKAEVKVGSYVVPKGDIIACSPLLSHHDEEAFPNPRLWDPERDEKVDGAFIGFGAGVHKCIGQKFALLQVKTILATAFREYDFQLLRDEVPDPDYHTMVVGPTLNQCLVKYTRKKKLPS

| IC50 [1] [µM] | IC50 [2] [nM] | IC50 [3] [µM] | IC50 [4] [nM] | Activity [10] | Compound | CC50 at 72 h [5] [µM] | selectivity ratio [6] | selectivity ratio [7] | selectivity ratio [8] | Ratio IC50 [9] |
| --- | --- | --- | --- | --- | --- | --- | --- | --- | --- | --- |
| 11.8 | 3600 | 17.7 | 2330 |  | O=[N+]([O-])c1ccc(C(c2ccn(-c3ccc([N+](=O)[O-])cc3)c2)n2ccnc2)cc1 (stereo not given) | 159 | 13 | 9 | 68 |  |
| 18.8 | 50 | 5.64 | 290 |  | Cc1ccc(-c2c[nH]cc2C(c2ccc(Cl)cc2Cl)n2ccnc2)cc1 (stereo not given) | 18.4 |  | 3 | 63 | 57 |
| 28.4 | 50 | 5.51 | 460 |  | COc1ccc(-c2c[nH]cc2C(c2ccc(Cl)cc2Cl)n2ccnc2)cc1 (stereo not given) | 14.8 |  | 3 | 32 | 57 |
| 34.4 | 203 | 15 | 59 |  | Clc1ccc(C(c2c[nH]cc2-c2ccc(Cl)cc2-c2ccccc2)n2ccnc2)cc1 (stereo not given) | 14.9 |  |  | 253 | 4 - 12 |
| 14.5 | 10200 | 31.1 | 4990 |  | O=[N+]([O-])c1ccc(-n2ccc(C(c3ccccc3)n3ccnc3)c2)cc1 (stereo not given) | 60.4 | 4 | 2 | 12 |  |
| 31.1 | > 74700 | 21.3 | 1810 |  | FC(F)(F)c1ccc(-n2ccc(C(c3ccc(Cl)cc3)n3ccnc3)c2)cc1 (stereo not given) | 40.1 | 1 | 2 | 22 |  |
| 24.2 | 66 | 5.22 | 280 |  | CC(C)c1ccc(-c2c[nH]cc2C(c2ccc(Cl)cc2Cl)n2ccnc2)cc1 (stereo not given) | 12.7 |  | 2 | 45 | 57 |
| 40.6 | 6180 | 25.2 | 4570 |  | O=[N+]([O-])c1ccc(-n2ccc(C(c3ccc(Cl)cc3)n3ccnc3)c2)cc1 (stereo not given) | 82.4 | 2 | 3 | 18 |  |
| 27.8 |  | 84.4 | 4090 |  | N#Cc1ccc(C(c2ccn(-c3ccc(C#N)cc3)c2)n2ccnc2)cc1 (stereo not given) | 139 | 5 | 2 | 34 |  |
| 22.5 | 66 | 4.87 | 300 |  | CCc1ccc(-c2c[nH]cc2C(c2ccc(Cl)cc2Cl)n2ccnc2)cc1 (stereo not given) | 13.3 |  | 3 | 45 | 57 |
| 35.7 | 3900 | 30.4 | 2180 |  | N#Cc1ccc(C(c2ccn(-c3ccc(Cl)cc3)c2)n2ccnc2)cc1 (stereo not given) | 42.4 | 1 | 1 | 19 |  |
|  | 43 |  |  |  | CSc1ccc(-c2c[nH]cc2C(c2ccc(Cl)cc2Cl)n2ccnc2)cc1 (stereo not given) |  |  |  |  | 57 |
| 15.6 | 18 | 6.41 | 340 | Active | Clc1ccc(C(c2c[nH]cc2-c2ccc3ccccc3c2)n2ccnc2)c(Cl)c1 (stereo not given) | 6.54 |  | 1 | 19 |  |

Further lines, the molecule ahead of its results:

| Compound | IC50 [1] [µM] | IC50 [2] [nM] | IC50 [3] [µM] | IC50 [4] [nM] | Activity [10] | CC50 at 72 h [5] [µM] | selectivity ratio [6] | selectivity ratio [7] | selectivity ratio [8] | Ratio IC50 [9] |
| --- | --- | --- | --- | --- | --- | --- | --- | --- | --- | --- |
| O=C(Cn1ccnc1[N+](=O)[O-])NCc1ccccc1 [BENZNIDAZOLE] |  |  |  |  |  | > 385 |  |  |  |  |
| CCN(CC)CCCC(C)Nc1ccnc2cc(Cl)ccc12 (stereo not given) [CHLOROQUINE] |  |  |  |  |  | 92.8 |  |  |  |  |
| Clc1ccc(C(c2c[nH]cc2-c2ccc(Cl)c3ccccc23)n2ccnc2)c(Cl)c1 (stereo not given) | 16.5 | 48 | 4.83 | 330 |  | 4.9 |  | 1 | 15 |  |
| Clc1ccc(-c2c[nH]cc2[C@@H](c2ccc(Cl)cc2Cl)n2ccnc2)cc1 | 12.2 | 17 | 5.02 | 110 |  | 5.56 |  | 1 | 51 |  |
| CS(=O)(=O)c1ccc(-c2c[nH]cc2C(c2ccc(Cl)cc2Cl)n2ccnc2)cc1 (stereo not given) | 33 | 29 | 10.2 | 1300 |  | 68 | 2 | 7 | 52 | 57 |
| Clc1ccc(C(c2c[nH]cc2-c2ccc(Cl)cc2-n2cccc2)n2ccnc2)c(Cl)c1 (stereo not given) | 11.9 | 12000 | 10.8 | 4530 |  | 7.67 |  |  | 2 |  |
| Nc1nc(N)nc(Nc2ccc([As]3SCC(CO)S3)cc2)n1 (stereo not given) [MELARSOPROL] |  |  |  |  |  | 28.9 | 3280 |  |  |  |
| CCCCCCCCCCCCCCCCOP(=O)([O-])OCC[N+](C)(C)C [MILTEFOSINE] |  |  |  |  |  | 137 |  | 245 |  |  |
| Clc1ccc(C(c2c[nH]cc2-c2ccc(Cl)cc2-c2ccccc2)n2ccnc2)c(Cl)c1 (stereo not given) | 29 | 142 | 13.9 | 96 |  | 14.3 |  | 1 | 149 | 4 - 12 |
| Clc1ccc(C(c2c[nH]cc2-c2ccc(Cl)cc2-c2cccs2)n2ccnc2)c(Cl)c1 (stereo not given) | 8.31 | 27 | 2.78 | 270 |  | 4.93 |  | 2 | 18 | 61 |
| Clc1ccc(-c2c[nH]cc2[C@H](c2ccc(Cl)cc2Cl)n2ccnc2)cc1 | 9.21 | 0.9 |  | 92 |  | 2.56 |  |  | 28 |  |
| C[C@@H]1CC[C@H]2[C@@H](C)C(=O)O[C@@H]3O[C@@]4(C)CC[C@@H]1[C@]32OO4 [ARTEMISININ] |  |  |  | 7 |  | > 350 |  |  | > 50000 |  |
